Reference: PubChem BioAssay AID248 (DTP/NCI, 2004)
“And” between values parts separate entries of the source, which are not always exact repeats. Equal entries are not always repeated. Toxic doses and inconclusive results are not listed. Rule as the data show it: active = T/C of 150% or more; inactive = T/C below 125%.

System: L1210 leukemia ip in BDF1 mice, survival T/C
Assay: NCI In Vivo Anticancer Drug Screen. Data for tumor model L1210 Leukemia (intraperitoneal) in B6D2F1 (BDF1) mice
Settings: endpoint: mean survival time, higher = longer survival
Summary of the method: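 Tumor cells were implanted, animals were treated, and survival was followed. The result divides the treated measurement by the vehicle-control measurement.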

[1] = dose: 25.0 mg/kg/injection, schedule: Q01DX009 (ip), vehicle: saline with Tween-80
[2] = dose: 50.0 mg/kg/injection, schedule: Q01DX009 (ip), vehicle: saline with Tween-80
[3] = dose: 100.0 mg/kg/injection, schedule: Q01DX009 (ip), vehicle: saline with Tween-80
[4] = dose: 100.0 mg/kg/injection, schedule: Q01DX001 (ip), vehicle: saline
[5] = dose: 200.0 mg/kg/injection, schedule: Q01DX001 (ip), vehicle: saline
[6] = dose: 400.0 mg/kg/injection, schedule: Q01DX001 (ip), vehicle: saline
[7] = dose: 200.0 mg/kg/injection, schedule: Q01DX009 (ip), vehicle: saline with Tween-80
[8] = dose: 100.0 mg/kg/injection, schedule: Q04DX003 (ip), vehicle: saline
[9] = dose: 200.0 mg/kg/injection, schedule: Q04DX003 (ip), vehicle: saline
[10] = dose: 400.0 mg/kg/injection, schedule: Q04DX003 (ip), vehicle: saline
[11] = dose: 12.5 mg/kg/injection, schedule: Q01DX009 (ip), vehicle: saline with Tween-80
[12] = dose: 100.0 mg/kg/injection, schedule: Q04DX003 (ip), vehicle: saline with Tween-80
[13] = dose: 200.0 mg/kg/injection, schedule: Q04DX003 (ip), vehicle: saline with Tween-80
[14] = dose: 400.0 mg/kg/injection, schedule: Q04DX003 (ip), vehicle: saline with Tween-80
[15] = dose: 100.0 mg/kg/injection, schedule: Q04DX002 (ip), vehicle: gum acacia
[16] = dose: 200.0 mg/kg/injection, schedule: Q04DX002 (ip), vehicle: gum acacia
[17] = dose: 100.0 mg/kg/injection, schedule: Q01DX009 (ip), vehicle: Klucel (hydroxypropylcellulose) (HPC)
[18] = dose: 100.0 mg/kg/injection, schedule: Q04DX003 (ip), vehicle: Klucel (hydroxypropylcellulose) (HPC)
[19] = dose: 200.0 mg/kg/injection, schedule: Q01DX009 (ip), vehicle: Klucel (hydroxypropylcellulose) (HPC)
[20] = dose: 200.0 mg/kg/injection, schedule: Q04DX003 (ip), vehicle: Klucel (hydroxypropylcellulose) (HPC)
[21] = dose: 400.0 mg/kg/injection, schedule: Q04DX003 (ip), vehicle: Klucel (hydroxypropylcellulose) (HPC)

Measured: T/C

O=P(CCc1ccccc1)(OCCCl)OCCCl
inactive: dose: 100.0 mg/kg/injection, schedule: Q04DX002 (ip), vehicle: saline with Tween-80 99 % of control | dose: 200.0 mg/kg/injection, schedule: Q04DX002 (ip), vehicle: saline with Tween-80 96 % of control | dose: 400.0 mg/kg/injection, schedule: Q04DX002 (ip), vehicle: saline with Tween-80 92 % of control

O=Cc1nccc2c1[nH]c1ccccc12
inactive: [1] 96 % of control | [2] 97 % of control | [3] 86 % of control and 90 % of control

O=C1CCCCC1Nc1ccc(Br)cc1 (configuration not stated)
inactive: [4] 98 % of control | [5] 98 % of control | [6] 98 % of control

C=CCC1CC2CC(C1C)C2(C)C (configuration not stated)
inactive: [2] 93 % of control | [3] 101 % of control | [7] 93 % of control

CCOc1ccc(NC(=S)NC(=O)c2cccc3ccccc23)cc1
inactive: dose: 100.0 mg/kg/injection, schedule: Q01DX009 (ip), vehicle: saline 96 % of control | [8] 92 % of control | dose: 200.0 mg/kg/injection, schedule: Q01DX009 (ip), vehicle: saline 96 % of control | [9] 100 % of control | dose: 400.0 mg/kg/injection, schedule: Q01DX009 (ip), vehicle: saline 95 % of control | [10] 92 % of control

Fc1ccc(N2CCNCC2)cc1
inactive: [11] 104 % of control | [1] 104 % of control | [2] 107 % of control

COc1ccc(-c2cnc3c(N)nn(C)c3n2)cc1
inactive: [3] 109 % of control | [12] 92 % of control | [7] 101 % of control | [13] 100 % of control | dose: 400.0 mg/kg/injection, schedule: Q01DX009 (ip), vehicle: saline with Tween-80 109 % of control | [14] 94 % of control

CCOC(=O)C1CSCC1=O (configuration not stated)
inactive: dose: 25.0 mg/kg/injection, schedule: Q01DX009 (ip), vehicle: water 97 % of control | dose: 50.0 mg/kg/injection, schedule: Q01DX009 (ip), vehicle: water 90 % of control | dose: 100.0 mg/kg/injection, schedule: Q01DX009 (ip), vehicle: water 104 % of control

NC(N)=N/N=C/N/N=C/c1ccccc1O
inactive: dose: 60.0 mg/kg/injection, schedule: Q01DX Z (oral), vehicle: carboxymethylcellulose (CMC) 91 % of control | dose: 120.0 mg/kg/injection, schedule: Q01DX Z (oral), vehicle: carboxymethylcellulose (CMC) 91 % of control | dose: 240.0 mg/kg/injection, schedule: Q01DX Z (oral), vehicle: carboxymethylcellulose (CMC) 100 % of control | dose: 480.0 mg/kg/injection, schedule: Q01DX Z (oral), vehicle: carboxymethylcellulose (CMC) 100 % of control

CC(C)=C(c1ccc(Cl)cc1)c1c(N)ncnc1N
inactive: [12] 100 % of control | [13] 100 % of control | [14] 100 % of control

CC(=O)CC(=O)Nc1cccc(Cl)c1
inactive: dose: 15.0 mg/kg/injection, schedule: Q01DX001 (ip), vehicle: carboxymethylcellulose (CMC) 108 % of control | dose: 30.0 mg/kg/injection, schedule: Q01DX001 (ip), vehicle: carboxymethylcellulose (CMC) 108 % of control

O=S(=O)(c1ccc(O)c(F)c1)c1ccc(O)c(F)c1
inactive: [15] 90 % of control | [16] 101 % of control

CCCCCCCCCCCCCCCC=C(C)C
inactive: dose: 100.0 mg/kg/injection, schedule: Q01DX001 (ip), vehicle: saline with Tween-80 101 % of control | dose: 200.0 mg/kg/injection, schedule: Q01DX001 (ip), vehicle: saline with Tween-80 103 % of control

CN1C(=O)CC(c2ccc(N3C(=O)C=CC3=O)cc2)C1=O (configuration not stated)
inactive: dose: 25.0 mg/kg/injection, schedule: Q04DX002 (ip), vehicle: saline with Tween-80 102 % of control

COCCC(=O)COC
inactive: dose: 50.0 mg/kg/injection, schedule: Q01DX001 (ip), vehicle: saline 97 % of control | [4] 95 % of control | [5] 91 % of control | [6] 95 % of control

SCc1ccc(Cl)cc1.[Pb]
inactive: [15] 88 % of control | [16] 98 % of control | dose: 400.0 mg/kg/injection, schedule: Q04DX002 (ip), vehicle: gum acacia 109 % of control

O=C(NCCNC(=O)Nc1ccc(Cl)cc1)Nc1ccc(Cl)cc1
inactive: [17] 96 % of control | [18] 98 % of control | [19] 94 % of control | [20] 93 % of control | dose: 400.0 mg/kg/injection, schedule: Q01DX009 (ip), vehicle: Klucel (hydroxypropylcellulose) (HPC) 91 % of control | [21] 92 % of control

CC(=O)OC(=O)C1C2CC3C(C2)C31 (configuration not stated)
inactive: dose: 6.25 mg/kg/injection, schedule: Q01DX009 (ip), vehicle: other 101 % of control | dose: 12.5 mg/kg/injection, schedule: Q01DX009 (ip), vehicle: other 97 % of control | dose: 25.0 mg/kg/injection, schedule: Q01DX009 (ip), vehicle: other 93 % of control

COc1ccc(N2CCN(c3c(N)cnc4ccccc34)CC2)c(OC)c1
inactive: dose: 100.0 mg/kg/injection, schedule: Q01DX001 (ip), vehicle: carboxymethylcellulose (CMC) 97 % of control | dose: 200.0 mg/kg/injection, schedule: Q01DX001 (ip), vehicle: carboxymethylcellulose (CMC) 103 % of control | dose: 400.0 mg/kg/injection, schedule: Q01DX001 (ip), vehicle: carboxymethylcellulose (CMC) 97 % of control

Cc1c(N)nc(N)nc1C(=O)O
inactive: dose: 25.0 mg/kg/injection, schedule: Q01DX001 (ip), vehicle: Klucel (hydroxypropylcellulose) (HPC) 108 % of control | dose: 50.0 mg/kg/injection, schedule: Q01DX001 (ip), vehicle: Klucel (hydroxypropylcellulose) (HPC) 93 % of control | dose: 100.0 mg/kg/injection, schedule: Q01DX001 (ip), vehicle: Klucel (hydroxypropylcellulose) (HPC) 105 % of control

CC1(C)CC([NH-])CC(C)(C)N1O.CC1(C)CC([NH-])CC(C)(C)N1O.[Cl][Pd][Cl]
inactive: [8] 94 % of control | [9] 105 % of control | [10] 90 % of control

Nc1nc(N)nc(-c2cccc(Cl)c2)n1
inactive: dose: 25.0 mg/kg/injection, schedule: Q04DX003 (ip), vehicle: Klucel (hydroxypropylcellulose) (HPC) 107 % of control | dose: 50.0 mg/kg/injection, schedule: Q04DX003 (ip), vehicle: Klucel (hydroxypropylcellulose) (HPC) 101 % of control | dose: 100.0 mg/kg/injection, schedule: Q04DX002 (ip), vehicle: Klucel (hydroxypropylcellulose) (HPC) 111 % of control | [18] 102 % of control

CC(C#N)CC12CCCCC1CC/C(=C\c1ccccc1)C2 (configuration not stated)
inactive: [18] 92 % of control | [20] 94 % of control | [21] 94 % of control

c1ccc(-c2ccno2)cc1
inactive: dose: 6.25 mg/kg/injection, schedule: Q01DX009 (ip), vehicle: saline with Tween-80 98 % of control | [11] 106 % of control | [1] 107 % of control | dose: 75.0 mg/kg/injection, schedule: Q01DX009 (ip), vehicle: saline with Tween-80 90 % of control

O=C(O)c1cc(Cl)ccc1Br
inactive: dose: 50.0 mg/kg/injection, schedule: Q01DX009 (ip), vehicle: Klucel (hydroxypropylcellulose) (HPC) 104 % of control | [17] 100 % of control | [12] 100 % of control | [19] 105 % of control | [13] 104 % of control | [14] 94 % of control

CCCCCCCCCCCCCCCCCC(=O)N/N=C/c1cc(C(C)(C)C)c(O)c(C(C)(C)C)c1
inactive: dose: 100.0 mg/kg/injection, schedule: Q01DX009 (ip), vehicle: other 90 % of control | dose: 200.0 mg/kg/injection, schedule: Q01DX009 (ip), vehicle: other 88 % of control | dose: 400.0 mg/kg/injection, schedule: Q01DX009 (ip), vehicle: other 96 % of control

OCC(O)C(O)C(O)C(O)CNCC(O)C(O)C(O)C(O)CO (configuration not stated)
inactive: dose: 100.0 mg/kg/injection, schedule: Q04DX002 (ip), vehicle: saline 98 % of control and 91 % of control and 88 % of control | dose: 200.0 mg/kg/injection, schedule: Q04DX002 (ip), vehicle: saline 91 % of control and 100 % of control | dose: 400.0 mg/kg/injection, schedule: Q04DX002 (ip), vehicle: saline 91 % of control and 107 % of control and 95 % of control
